Here are results for 49 compounds from patent publication US7297700B2, “Bicycloheteroaryl compounds as P2X7 modulators and uses thereof” (Renovis, Inc., priority 2005, dated 2007).

By inhibition is commonly meant the change of the read-out against control, counted positive when it falls.

The test system of one assay is IL-1β release from THP-1 cells. Briefly: IL-1β Release Assay (Alternate Method), THP-1 cells. It is filed as cell-based, human. The following applies: Homo sapiens, THP-1, read-out: IL-1β % inhibition. In a few lines:
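IL-1β release, measured by ELISA, follows 45 min BzATP (250 uM final) stimulation of THP-1 cells given 30 min compound pretreatment. Cells were first primed 16 h with LPS and IFN-γ (100 ng/mL each), then 2 h with fresh LPS; inhibition expressed in percent after background correction.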
`O=C(CC12CC3CC(CC(C3)C1)C2)Nc1ncnc2c1CCN(Cc1ccccc1)C2` [Compound 5, 2-Adamantan-1-yl-N-(7-benzyl-5,6,7,8-tetrahydro-pyrido[3,4-d]pyrimidin-4-yl)-acetamide]: the inhibition at 0.3 µM fell in the range of 25 to 50%.

The assay is the same for the next values; noted with them: at 0.3 μM; THP-1 cells.
Turning to `O=C(CC12CC3CC(CC(C3)C1)C2)Nc1ncnc2c1CCN(S(=O)(=O)c1c(Cl)cccc1Cl)C2` [Compound 210], the IL-1β % inhibition result is “+ (compound exhibited 0-25% inhibition at 0.3 μM)”. `O=C(c1ccc(OC(F)(F)F)cc1)N1CCc2c(ncnc2NC(=O)C23CC4CC(CC(C4)C2)C3)C1` [Compound 401]: the IL-1β % inhibition entry is recorded as “+ (compound exhibited 0-25% inhibition at 0.3 μM)”. Consider `Cc1nc(S(=O)(=O)N2CCc3c(ncnc3NC(=O)CC34CC5CC(CC(C5)C3)C4)C2)cn1C` [Compound 164], for which the IL-1β % inhibition entry was “+ (compound exhibited 0-25% inhibition at 0.3 μM)”. In the case of `O=C(CC12CC3CC(CC(C3)C1)C2)Nc1ncnc2c1CCN(C(=O)c1cc(C(F)(F)F)ccc1Cl)C2` [Compound 271], the IL-1β % inhibition entry is “++++ (compound exhibited 75% or greater inhibition at 0.3 μM)”. The same measure, in the same setting: the value for `Cc1ccc(CN2CCc3c(ncnc3NC(=O)CC34CC5CC(CC(C5)C3)C4)C2)cc1` [Compound 44] was “+ (compound exhibited 0-25% inhibition at 0.3 μM)”; that for `O=C(CC12CC3CC(CC(C3)C1)C2)Nc1ncnc2c1CCN(Cc1ccc3c(c1)OCO3)C2` [Compound 321] was “++++ (compound exhibited 75% or greater inhibition at 0.3 μM)”; that for `O=C(CC12CC3CC(CC(C3)C1)C2)Nc1ncnc2c1CCN(S(=O)(=O)c1c(F)cccc1F)C2` [Compound 206] was “+ (compound exhibited 0-25% inhibition at 0.3 μM)”. The same measure, in the same setting: under `CC(C)(C)CC(=O)N1CCc2c(ncnc2NC(=O)CC23CC4CC(C)(CC(C)(C4)C2)C3)C1` [Compound 388] stands “+ (compound exhibited 0-25% inhibition at 0.3 μM)”. For the compound `COc1cccc(CN2CCc3c(ncnc3NC(=O)CC34CC5CC(CC(C5)C3)C4)C2)c1` [Compound 35], the IL-1β % inhibition result is given as “+++ (compound exhibited 50-75% inhibition at 0.3 μM)”. As for `O=C(CC12CC3CC(CC(C3)C1)C2)Nc1ncnc2c1CCN(S(=O)(=O)Cc1cccc(C(F)(F)F)c1)C2` [Compound 187], the IL-1β % inhibition result was “++++ (compound exhibited 75% or greater inhibition at 0.3 μM)”. `Cc1ccc(CN2CCc3c(ncnc3NC(=O)CC34CC5CC(CC(C5)C3)C4)C2)cc1F` [Compound 85]: the IL-1β % inhibition entry was “+ (compound exhibited 0-25% inhibition at 0.3 μM)”. For `N#Cc1ccc(S(=O)(=O)N2CCc3c(ncnc3NC(=O)CC34CC5CC(CC(C5)C3)C4)C2)c(Cl)c1` [Compound 165], the IL-1β % inhibition result is on record as “+++ (compound exhibited 50-75% inhibition at 0.3 μM)”.

As to `CS(=O)(=O)N1CCc2c(ncnc2NC(=O)CC23CC4CC(CC(C4)C2)C3)C1` [Compound 142], the IL-1β % inhibition result was “+++ (compound exhibited 50-75% inhibition at 0.3 μM)”. For `O=C(CC12CC3CC(CC(C3)C1)C2)Nc1ncnc2c1CCN(C(=O)c1ccc(C(F)(F)F)cc1F)C2` [Compound 266], the IL-1β % inhibition result is “+ (compound exhibited 0-25% inhibition at 0.3 μM)”. Regarding `CC12CC3CC(C)(C1)CC(CC(=O)Nc1ncnc4c1CCN(C(=O)c1c(F)cccc1Cl)C4)(C3)C2` [Compound 389], the IL-1β % inhibition result is given as “++ (compound exhibited 25-50% inhibition at 0.3 μM)”. Take `CC12CC3CC(C)(C1)CC(CC(=O)Nc1ncnc4c1CCN(Cc1ccc5c(c1)OCCO5)C4)(C3)C2` [Compound 373]: the IL-1β % inhibition result was “++++ (compound exhibited 75% or greater inhibition at 0.3 μM)”.

With `O=C(CC12CC3CC(CC(C3)C1)C2)Nc1ncnc2c1CCN(S(=O)(=O)Cc1ccc(F)cc1)C2` [Compound 184], the IL-1β % inhibition result was “++++ (compound exhibited 75% or greater inhibition at 0.3 μM)”.

`O=C(CC12CC3CC(CC(C3)C1)C2)Nc1ncnc2c1CCN(S(=O)(=O)c1cccc(OC(F)(F)F)c1)C2` [Compound 161]: the IL-1β % inhibition entry is recorded as “++ (compound exhibited 25-50% inhibition at 0.3 μM)”. For the compound `CCN1CCc2c(ncnc2NC(=O)CC2CCCCC2)C1` [Compound 20], the IL-1β % inhibition entry is “+ (compound exhibited 0-25% inhibition at 0.3 μM)”. For the compound `CCS(=O)(=O)N1CCc2c(ncnc2NC(=O)CC23CC4CC(CC(C4)C2)C3)C1` [Compound 148], the IL-1β % inhibition entry is listed as “+ (compound exhibited 0-25% inhibition at 0.3 μM)”. Turning to `O=C(CC12CC3CC(CC(C3)C1)C2)Nc1ncnc2c1CCN(Cc1ccccc1F)C2` [Compound 28], the IL-1β % inhibition result was “++++ (compound exhibited 75% or greater inhibition at 0.3 μM)”. For `COc1ccc(CC(=O)N2CCc3c(ncnc3NC(=O)CC34CC5CC(CC(C5)C3)C4)C2)cc1` [Compound 224], the IL-1β % inhibition entry is listed as “+ (compound exhibited 0-25% inhibition at 0.3 μM)”.

`O=C(CC12CC3CC(CC(C3)C1)C2)Nc1ncnc2c1CCN(Cc1ccc(Cl)cc1Cl)C2` [Compound 319]: the IL-1β % inhibition entry is “+ (compound exhibited 0-25% inhibition at 0.3 μM)”. `COc1ccc(C)cc1S(=O)(=O)N1CCc2c(ncnc2NC(=O)CC23CC4CC(CC(C4)C2)C3)C1` [Compound 214]: the IL-1β % inhibition entry is reported as “+ (compound exhibited 0-25% inhibition at 0.3 μM)”. As to `CC12CC3CC(C)(C1)CC(CC(=O)Nc1ncnc4c1CCN(C(=O)c1cccc(Cl)c1Cl)C4)(C3)C2` [Compound 391], the IL-1β % inhibition result is listed as “+ (compound exhibited 0-25% inhibition at 0.3 μM)”. Turning to `COc1ccccc1CN1CCc2c(ncnc2NC(=O)CC23CC4CC(CC(C4)C2)C3)C1` [Compound 29], the IL-1β % inhibition result is “+ (compound exhibited 0-25% inhibition at 0.3 μM)”. For the compound `CC(C)(C(=O)Nc1ncnc2c1CCN(Cc1ccccc1)C2)C12CC3CC(CC(C3)C1)C2` [Compound 339], the IL-1β % inhibition entry was “+ (compound exhibited 0-25% inhibition at 0.3 μM)”.

`O=C(CC12CC3CC(CC(C3)C1)C2)Nc1ncnc2c1CCN(S(=O)(=O)Cc1ccc(Cl)cc1)C2` [Compound 189]: the IL-1β % inhibition result is listed as “++++ (compound exhibited 75% or greater inhibition at 0.3 μM)”.

As for `O=C(CC12CC3CC(CC(C3)C1)C2)Nc1ncnc2c1CCN(C(=O)c1ccc(F)cc1)C2` [Compound 251], the IL-1β % inhibition result was “+ (compound exhibited 0-25% inhibition at 0.3 μM)”. With `CCc1ccc(C(=O)N2CCc3c(ncnc3NC(=O)CC34CC5CC(CC(C5)C3)C4)C2)cc1` [Compound 229], the IL-1β % inhibition entry was “+++ (compound exhibited 50-75% inhibition at 0.3 μM)”. The same measure, in the same setting: under `O=C(CC12CC3CC(CC(C3)C1)C2)Nc1ncnc2c1CCN(C(=O)COc1ccc(Cl)cc1)C2` [Compound 264] stands “+++ (compound exhibited 50-75% inhibition at 0.3 μM)”; under `O=C(CC12CC3CC(CC(C3)C1)C2)Nc1ncnc2c1CCN(S(=O)(=O)c1cccc(Cl)c1)C2` [Compound 168], “++++ (compound exhibited 75% or greater inhibition at 0.3 μM)”.

The assay is the same for the next values; noted with them: at 0.3 μM; THP-1 cells, BzATP-stimulated.
On to `O=C(Nc1ncnc2c1CCN(Cc1cccnc1)C2)C12CC3CC(CC(C3)C1)C2` [Compound 560], for which the IL-1β % inhibition result is “++ (compound exhibited 25-50% inhibition at 0.3 μM)”.

For the compound `Cc1ccc(F)cc1S(=O)(=O)N1CCc2c(ncnc2NC(=O)C23CC4CC(CC(C4)C2)C3)C1` [Compound 546], the IL-1β % inhibition entry is “+ (compound exhibited 0-25% inhibition at 0.3 μM)”. In the case of `O=C(Nc1ncnc2c1CCN(Cc1ccncc1)C2)C12CC3CC(CC(C3)C1)C2` [Compound 610], the IL-1β % inhibition result is listed as “+ (compound exhibited 0-25% inhibition at 0.3 μM)”. Turning to `O=C(c1cccc(C(F)(F)F)c1)N1CCc2c(ncnc2NC(=O)C23CC4CC(CC(C4)C2)C3)C1` [Compound 406], the IL-1β % inhibition entry was “++ (compound exhibited 25-50% inhibition at 0.3 μM)”. As for `O=C(Nc1ncnc2c1CCN(S(=O)(=O)c1ccc(F)c(Cl)c1)C2)C12CC3CC(CC(C3)C1)C2` [Compound 526], the IL-1β % inhibition entry is “++ (compound exhibited 25-50% inhibition at 0.3 μM)”.

As to `O=C(c1ccc(F)cc1F)N1CCc2c(ncnc2NC(=O)C23CC4CC(CC(C4)C2)C3)C1` [Compound 449], the IL-1β % inhibition result was “++ (compound exhibited 25-50% inhibition at 0.3 μM)”.

Take `O=C(Cc1ccc(F)cc1)N1CCc2c(ncnc2NC(=O)C23CC4CC(CC(C4)C2)C3)C1` [Compound 413]: the IL-1β % inhibition result is given as “++ (compound exhibited 25-50% inhibition at 0.3 μM)”. On the same count and under the same terms, under `Cc1nc(S(=O)(=O)N2CCc3c(ncnc3NC(=O)C34CC5CC(CC(C5)C3)C4)C2)cn1C` [Compound 499] stands “+ (compound exhibited 0-25% inhibition at 0.3 μM)”. In the case of `O=C(c1c(F)cccc1Cl)N1CCc2c(ncnc2NC(=O)C23CC4CC(CC(C4)C2)C3)C1` [Compound 444], the IL-1β % inhibition entry is “+ (compound exhibited 0-25% inhibition at 0.3 μM)”. The same measure, in the same setting: the value for `COc1ccc(CN2CCc3c(ncnc3NC(=O)C34CC5CC(CC(C5)C3)C4)C2)cc1` [Compound 562] was “+ (compound exhibited 0-25% inhibition at 0.3 μM)”. Consider `O=C(C(c1ccccc1)c1ccccc1)N1CCc2c(ncnc2NC(=O)C23CC4CC(CC(C4)C2)C3)C1` [Compound 409], for which the IL-1β % inhibition result is “+ (compound exhibited 0-25% inhibition at 0.3 μM)”. `O=C(Nc1ncnc2c1CCN(S(=O)(=O)c1ccc3ccccc3c1)C2)C12CC3CC(CC(C3)C1)C2` [Compound 483]: the IL-1β % inhibition result is recorded as “+++ (compound exhibited 50-75% inhibition at 0.3 μM)”.

For `O=C(Nc1ncnc2c1CCN(Cc1ccc(OC(F)(F)F)cc1)C2)C12CC3CC(CC(C3)C1)C2` [Compound 620], the IL-1β % inhibition result is given as “++ (compound exhibited 25-50% inhibition at 0.3 μM)”. Consider `O=C(Nc1ncnc2c1CCN(Cc1ccc(Cl)c(F)c1)C2)C12CC3CC(CC(C3)C1)C2` [Compound 611], for which the IL-1β % inhibition entry was “+++ (compound exhibited 50-75% inhibition at 0.3 μM)”. Regarding `O=C(Nc1ncnc2c1CCN(Cc1ccc(Cl)cc1)C2)C12CC3CC(CC(C3)C1)C2` [Compound 601], the IL-1β % inhibition result is reported as “+++ (compound exhibited 50-75% inhibition at 0.3 μM)”. Still for that read-out and setting: the value for `CC(CN1CCc2c(ncnc2NC(=O)C23CC4CC(CC(C4)C2)C3)C1)c1ccccc1` (stereo not shown) [Compound 554] was “++++ (compound exhibited 75% or greater inhibition at 0.3 μM)”.
